“And” between values parts separate entries of the source, which are not always exact repeats. Equal entries are not always repeated. Each block holds one compound with its values, some of them ahead of it.
Legend:
leukotriene receptor = target: T1, leukotriene receptor (Cavia porcellus, UniProt Q2NNR5); assay: Binding of 3H-Leukotriene D4 to Guinea Pig Lung Membranes (RBL)
T1 construct: Two pairs of lungs (1.3 g) from freshly sacrificed 300 g male guinea pigs; tissue Kuiper Rabbit Farm, Gary, Ind; (animals); host or cells: guinea pig lung, crude membranes
T1 sequence (Q2NNR5 1-340): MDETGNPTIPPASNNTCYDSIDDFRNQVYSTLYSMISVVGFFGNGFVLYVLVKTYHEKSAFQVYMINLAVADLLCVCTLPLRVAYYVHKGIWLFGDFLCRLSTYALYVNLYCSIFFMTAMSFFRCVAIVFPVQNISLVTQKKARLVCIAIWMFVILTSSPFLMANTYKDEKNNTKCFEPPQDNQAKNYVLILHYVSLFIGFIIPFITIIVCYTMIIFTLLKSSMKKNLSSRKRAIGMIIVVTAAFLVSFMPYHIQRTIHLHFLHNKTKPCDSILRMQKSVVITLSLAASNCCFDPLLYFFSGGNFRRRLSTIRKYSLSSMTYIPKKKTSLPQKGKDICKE
Protocol: Additionally, the activity, of the compounds having the Formula I of the present invention is determined by the well known leukotriene receptor binding assay that is described by R. F. Bruns, W. J. Thomsen and T. A. Pugsley in Life Sciences, 33, 645 (1983) or the Herxheimer in vivo antiallergy test described in H. Herxheimer, J. Physiol. (London), Vol. 177, p. 251 (1952).
[14,15-^3 H]leukotriene D4 (^3 H-LTD4) (25 Ci/mmol and 40 Ci/mmol) is purchased from New England Nuclear. Unlabeled LTC4 is a gift of Ono Pharmaceuticals (Japan). LTC4, LTD4, and LTE4 are purchased as methyl esters from Paesel GmbH (Frankfurt, W. Germany). Concentrations of the Paesel leukotrienes are calculated from their absorbance at 280 nm. Leukotriene esters are saponified overnight under N2 in 3.3% potassium carbonate at room temperature. Tritiated leukotrienes are stored as received from New England Nuclear at -20° C. Ono LTC4 (5 μg/ml) is stored at -60° C. in phosphate buffer pH - 6.8. Saponified Paesel leukotrienes are stored at -60° C. in 3.3% potassium carbonate (pH 9.0-9.5). Aliquots of leukotrienes are taken from stock solutions immediately after thawing, after which the stock solutions are immediately refrozen. 2-Amino-2-(hydroxymethyl)-1,3-propanediol (Tris) is Sigma pH 7.7 pre-set crystals, and dimethylsulfoxide is Aldrich Gold Label. Preparation of crude lung membranes
Two pairs of lungs (1.3 g) from freshly sacrificed 300 g male guinea pigs (older animals gave substantially lower binding) from Kuiper Rabbit Farm, Gary, Ind. are disrupted with a Polytron PT 10 (setting 4) for 30 seconds in 20 ml ice-cold 50 mM Tris adjusted with HCl to pH 7.7 at 25° C. (Tris buffer), filtered through a single layer of gauze to remove connective tissue, and centrifuged at 50,000 xg for ten min. The pellet is resuspended by homogenization with a Polytron in 20 ml Tris buffer, centrifuged at 50,000 xg for ten min., resuspended, incubated at 37° C. for 30 minutes, and centrifuged again. The final pellet is resuspended in Tris buffer and either used fresh or stored at -70° C.
All incubations are in triplicate for 60 minutes at 25° C. in 12×75 mm polystyrene tubes containing 1 ml Tris buffer with 20 mg original tissue wet weight of guinea pig lung membranes, 0.2 nM ^3 H-LTD4 (6,000-11,000 cpm), 10 mM MgCl2, and 1% dimethylsulfoxide. Leukotrienes are diluted in Tris buffer. All other test compounds dissolved at 10 mM in dimethylsulfoxide on the same day as the experiment, and diluted in dimethylsulfoxide to 100× the final incubation concentration. Control incubations receive an equal volume (10 μl) of dimethylsulfoxide; the resulting concentration of dimethylsulfoxide had no effect on binding. ^3 H-LTD4 is diluted to 2 nM in Tris buffer. The membrane suspension (20 mg/0.89 ml) contains sufficient MgCl2 to give 10 mM final concentration in the incubation. […] All additions are performed at 0° C. Immediately after the last addition, the incubation is initiated by agitating the rack of tubes on a vortex mixer and warming to 25° C. in a water bath. Tubes are vortexed at least once more during the incubation to ensure that the membranes remained suspended. Incubations are terminated after 60 minutes by filtering under reduced pressure through 25 mm Whatman GF/B filters followed by rapid washing three times with 4 ml of ice-cold Tris buffer. Filters are added to scintillation vials with 8 ml Formula 947 (New England Nuclear), left overnight, shaken, and the radioactivity counted in a scintillation counter (efficiency 40%). Nonspecific binding, defined as binding of ^3 H-LTD4 in the presence of 100 nM LTC4, is 300-500 cpm for all lots of ^3 H-LTD4. Binding to the filters in the absence of tissue is about 100 cpm, and is not affected by unlabeled LTC4. Specific binding, defined as total binding minus nonspecific binding, varied considerably from lot to lot of ^3 H-LTD4. […]

[1] = test system: Human Leukocyte Lipoxygenase; assay: Human Leukocyte Lipoxygenase Assay (LDA-H); type: biochemical
Protocol: Whole blood is collected from normal volunteers and spun in a refrigerated centrifuge for four minutes at 1°-6° C. at 3800 g. The buffy coat is manually separated and washed twice with chilled 0.83% NH4 Cl and centrifuged at 1000 RPM for ten minutes at 4° C. The white cell is suspended in culture media-EMEM supplemented with 6% Agamma human serum, tricine buffer, and neomycin and recentrifuged at 1000 g to yield a pellet containing the leukocytes used for the preparation of the acetone pentane powder.
The acetone-pentane powder is prepared utilizing a modification of the procedure reported for human platelet lipoxygenase. See Siegel, et al, Arachidonate Metabolism via Lipoxygenase and 12-L-hydro-peroxy-5 Eicosatetraenoic Acid Peroxidase Sensitive to Antiinflammatory Drugs, Proc. Natl. Acad. Sci., U.S.A. 77:308, 1980 and D. P. Wallach and V. R. Brown, A Novel Preparation of Human Platlet Lipoxygenase, Biochem. Biophys. Acta. 663:361, 1981. Buffy coat prepared above is resuspended in 5-7 volumes of cold 0.1M Tris buffer, pH 7.4 containing 0.154M NaCl. The suspension is centrifuged at 13,300 g for ten minutes at 4° C. The resultant pellet is retained, resuspended in five volumes of cold acetone, recentrifuged at 13,300 g and resuspended in five volumes of cold pentane. The pentane suspension is centrifuged for ten minutes at 13,300 g to give a pellet which is dried in the cold under vacuum with periodic pulverization. The dry powder is stable for several weeks when stored at -80° C.
Enzyme stock solution is prepared in the following manner. About 15 mg of the acetone-pentane powder is suspended in 4 ml of cold tris buffer (0.1M, pH 7.4), allowed to stand for five minutes, and homogenized thoroughly. The homogenate is sonicated three times for 15 seconds each time, diluted to 7 ml with cold tris buffer (0.1M, pH 7.4), and centrifuged at 4° C. for 60 minutes at 13,300 g. The supernatent is retained and diluted to a total of 10 ml with cold tris buffer (0.1M, pH 7.4) to give the stock enzyme solution. Additional dilutions of 2-50 fold are done as necessary to locate optimal enzyme reaction rate in the assay described below.
Substrate solution is prepared at 100 μM or 1.0 μM concentrations of arachidonic acid or linoleic acid in 0.1M tris buffer, pH 9.0 containing 20% ethanol.
The enzyme reaction is followed spectrophotometrically by the appearance of a conjugated diene product at 234 nm. The reaction is monitored at 24° C. using a Gilford Model 2600 spectrophotometer. […] The effects of inhibitors on the reaction are compared with control reactions run under indentical conditions. Routinely, each compounds of the present invention is incubated with the enzyme for five minutes prior to addition of substrate to initiate the reaction. Inhibition expressed as IC50 as molar concentration of the compound required to reduce reaction rate to 50% control.

RBL, % Inhibition (leukotriene receptor; 1.00 E -5 M): 6.0% | RBL, % Inhibition (leukotriene receptor; 1.00 E -6 M): 5.0% | RBL, % Inhibition (leukotriene receptor; 2.00 E -5 M): 12.0% | RBL, % Inhibition (leukotriene receptor; 2.00 E -6 M): 10.0% | RBL, % Inhibition (leukotriene receptor; 5.00 E -5 M): 11.0% | RBL, % Inhibition (leukotriene receptor; 5.00 E -6 M): 13.0%
Structure (SMILES): CN(C)c1ccc(CCc2ccc(NC(=O)C3CS(=O)(=O)c4ccccc4C3=O)cc2)cc1 (stereo not drawn) [Example 55]

RBL, % Inhibition (leukotriene receptor; 1.00 E -4 M): 43.0%
Structure (SMILES): CCCCCCCCCCc1ccc(NC(=O)C(=O)c2sc3ccc(Cl)cc3c2O)cc1 [Example 135, Benzo[b]thiophene-2-acetamide, 5-chloro-N-(4-decylphenyl)-3-hydroxy-α-oxo]

RBL, % Inhibition (leukotriene receptor; 1.00 E -4 M): 78.0% and 81.0% | RBL, % Inhibition (leukotriene receptor; 1.00 E -5 M): 7.0% | RBL, % Inhibition (leukotriene receptor; 2.00 E -5 M): 27.0% | RBL, % Inhibition (leukotriene receptor; 2.00 E -6 M): 6.0% | RBL, % Inhibition (leukotriene receptor; 3.15 E -5 M): 80.0% | RBL, % Inhibition (leukotriene receptor; 5.00 E -5 M): 59.0% | RBL, % Inhibition (leukotriene receptor; 5.00 E -6 M): 3.0% | LDAH, % Inhibition ([1]; 2.50 E -5 M): 0.0%
Structure (SMILES): O=C(Nc1ccc(CCc2cc(O)c(O)c(O)c2)cc1)C1=C(O)c2ccccc2S(=O)(=O)C1 [Example 36]

RBL, % Inhibition (leukotriene receptor; 1.00 E -4 M): 25.0%
Structure (SMILES): COc1ccc(CCc2ccc(NC(=O)C(=O)c3sc4ccc(Cl)cc4c3O)cc2)cc1OC [Example 139, Benzo[b]thiophene-2-acetamide, 5-chloro-N-[4-[2-(3,4-dimethox-yphenyl)ethyl]phenyl]-3-hydroxy-α-oxo]

RBL, % Inhibition (leukotriene receptor; 1.00 E -4 M): 0.0%
Structure (SMILES): O=C(O)c1ccc(CCc2ccc(NC(=O)C3CS(=O)(=O)c4ccccc4C3=O)cc2)cc1 (stereo not drawn) [Example 12, 4-[2-[4-[[(3,4-Dihydro-4-oxo-2H-1-benzothiopyran-3-yl)carbonyl]amino]phenyl]ethyl]benzoic acid, 1,1-dioxide]

IC50 (leukotriene receptor; 0.2 nM 3H-LTD4, guinea pig lung membranes, 60 min, 25 °C, read-out: RBL, concentration for 50% inhibition (IC)): 26.5 µM | LDAH, % Inhibition ([1]; 2.50 E -5 M): 0.0% | LDAH, % Inhibition ([1]; 8.00 E -5 M): 0.0%
Structure (SMILES): O=C(Nc1ccc(CCc2ccccc2O)cc1)C1=C(O)c2ccccc2S(=O)(=O)C1 [Example 38]

RBL, % Inhibition (leukotriene receptor; 1.00 E -4 M): 30.0%
Structure (SMILES): O=C(Nc1ccc(CCc2ccc(Cl)cc2)cc1)c1sc2ccccc2c1O [Example 145, Benzo[b]thiophene-2-carboxamide, N-[4-[2-(4-chlorophenyl)ethyl]phenyl]-3-hydroxy]

Source: US4921871A, “Enolamides, pharmaceutical compositions and methods of use thereof for treating inflammation” (Warner-Lambert Company, priority 1987, dated 1990)
